Data published in ChEMBL document CHEMBL5331095, “Structure-activity relationship and biological evaluation of xanthine derivatives as PCSK9 inhibitors for the treatment of atherosclerosis” (Eur J Med Chem, 2023).
Each block holds one molecule with its values, some of them ahead of it. Activity calls are given as the source filed them. The rule behind the calls is not given here.

How the values were obtained:
[1] = biological target: Proprotein convertase subtilisin/kexin type 9 (Homo sapiens) (UniProt Q8NBP7); assay: Inhibition of PCSK9 transcriptional activity in human HepG2 cells stably expressing luciferase reporter plasmid containing PCSK9 promoter assessed as decrease in luciferase activity at 10 ug/ml incubated for 24 hrs by Luciferase assay relative to control; assay type: cell-based; details: dose 10.0 µg/ml
Proprotein convertase subtilisin/kexin type 9 (Homo sapiens), sequence (Q8NBP7 31-152 limits assumed): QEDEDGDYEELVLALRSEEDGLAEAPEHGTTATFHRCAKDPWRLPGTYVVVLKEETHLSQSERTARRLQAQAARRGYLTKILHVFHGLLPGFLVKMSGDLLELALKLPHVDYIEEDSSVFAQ
Proprotein convertase subtilisin/kexin type 9 (Homo sapiens), sequence (Q8NBP7 153-692 limits assumed): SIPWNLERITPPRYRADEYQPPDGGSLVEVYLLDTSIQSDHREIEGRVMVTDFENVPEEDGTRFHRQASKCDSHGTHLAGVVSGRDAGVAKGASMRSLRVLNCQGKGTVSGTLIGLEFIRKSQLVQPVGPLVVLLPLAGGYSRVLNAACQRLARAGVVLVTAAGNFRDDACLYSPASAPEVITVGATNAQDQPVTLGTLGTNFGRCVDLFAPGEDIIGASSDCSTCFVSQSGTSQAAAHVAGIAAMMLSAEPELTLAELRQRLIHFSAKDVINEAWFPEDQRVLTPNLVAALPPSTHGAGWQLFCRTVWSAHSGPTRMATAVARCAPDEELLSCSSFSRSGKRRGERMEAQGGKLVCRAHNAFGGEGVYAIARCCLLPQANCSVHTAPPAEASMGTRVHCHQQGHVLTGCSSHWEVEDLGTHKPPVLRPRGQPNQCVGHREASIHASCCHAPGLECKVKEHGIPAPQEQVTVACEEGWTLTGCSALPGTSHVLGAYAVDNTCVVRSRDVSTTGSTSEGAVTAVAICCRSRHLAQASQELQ

[2] = Cytotoxicity against human HepG2 cells assessed as reduction in cell viability by measuring toxic concentration incubated for 24 hrs by MTT assay; assay type: toxicity, cell-based; details: read-out: TC50
[3] = tested on: PCSK9 transcriptional activity; assay: Therapeutic index, ratio of TC50 for cytotoxicity against human HepG2 cells to IC50 for inhibition of PCSK9 transcriptional activity in human HepG2 cells stably expressing luciferase reporter plasmid containing PCSK9 promoter; assay type: toxicity, cell-based
[4] = Acute toxicity in C57BL/6 mouse assessed as lethality upto 1000 mg/kg, IG and measured every day for 1 week; assay type: organism-based; details: in vivo, po, time 1 weeks
Mus musculus [5] = assay: Antiatherosclerotic activity in high-fat diet fed ApoE knockout C57BL/6 mouse assessed as decrease in high-fat diet induced increase in body weight at 30 mg/kg, IG for 8 weeks; assay type: functional, organism-based
Mus musculus [6] = assay: Antiatherosclerotic activity in high-fat diet fed ApoE knockout C57BL/6 mouse assessed as decrease in serum total cholesterol level at 30 mg/kg, IG for 8 weeks by lipid profiling assay; assay type: functional, organism-based
Mus musculus [7] = assay: Antiatherosclerotic activity in high-fat diet fed ApoE knockout C57BL/6 mouse assessed as decrease in serum triglyceride level at 30 mg/kg, IG for 8 weeks by lipid profiling assay; assay type: functional, organism-based
[8] = Acute toxicity in C57BL/6 mouse assessed as body weight change upto 1000 mg/kg, IG and measured every day for 1 week; assay type: organism-based; details: in vivo, po, 168 h, time 1 weeks
[9] = Acute toxicity in C57BL/6 mouse assessed as behavioral change upto 1000 mg/kg, IG and measured every day for 1 week; assay type: organism-based; details: in vivo, po, 168 h, time 1 weeks
[10] = Acute toxicity in C57BL/6 mouse assessed as survival upto 1000 mg/kg, IG and measured every day for 1 week; assay type: organism-based; details: in vivo, po, 168 h, time 1 weeks
Mus musculus [11] = assay: In vivo inhibition of PCSK9 in high-fat diet fed ApoE knockout C57BL/6 mouse assessed as decrease in PCSK9 expression in serum at 30 mg/kg, IG for 8 weeks by ELISA; assay type: functional, organism-based
Mus musculus [12] = assay: In vivo inhibition of PCSK9 in high-fat diet fed ApoE knockout C57BL/6 mouse assessed as decrease in PCSK9 expression in liver at 30 mg/kg, IG for 8 weeks by Western blot analysis; assay type: functional, organism-based
[13] = biological target: Proprotein convertase subtilisin/kexin type 9 (Homo sapiens) (UniProt Q8NBP7); assay: Inhibition of PCSK9 in human HepG2 cells assessed as decrease in PCSK9 protein expression level at 2.5 to 25 uM incubated for 24 hrs by Western blot analysis; assay type: cell-based; details: dose 2.5-25 µM
[14] = biological target: Proprotein convertase subtilisin/kexin type 9 (Homo sapiens) (UniProt Q8NBP7); assay: Inhibition of PCSK9 in human HepG2 cells assessed as increase in LDLR protein expression level at 2.5 to 25 uM incubated for 24 hrs by Western blot analysis; assay type: cell-based; details: dose 2.5-25 µM
[15] = biological target: Proprotein convertase subtilisin/kexin type 9 (Homo sapiens) (UniProt Q8NBP7); assay: Inhibition of PCSK9 in human HepG2 cells assessed as increase in LDL-cholesterol cellular uptake by measuring DiI fluorescence at 2.5 to 25 uM incubated for 24 hrs by Dil-LDL staining based flow cytometry analysis; assay type: cell-based; details: dose 2.5-25 µM
[16] = biological target: Proprotein convertase subtilisin/kexin type 9 (Homo sapiens) (UniProt Q8NBP7); assay: Inhibition of PCSK9 in human HepG2 cells assessed as fold increase in LDL-cholesterol cellular uptake by measuring DiI fluorescence at 25 uM incubated for 24 hrs by Dil-LDL staining based flow cytometry analysis relative to control; assay type: cell-based
Mus musculus [17] = assay: Antiatherosclerotic activity in high-fat diet fed ApoE knockout C57BL/6 mouse assessed as decrease in LDL cholesterol level at 30 mg/kg, IG for 8 weeks by FPLC analysis; assay type: functional, organism-based
Mus musculus [18] = assay: Antiatherosclerotic activity in high-fat diet fed ApoE knockout C57BL/6 mouse assessed as decrease in VLDL fraction cholesterol level at 30 mg/kg, IG for 8 weeks by FPLC analysis; assay type: functional, organism-based
Mus musculus [19] = assay: Antiatherosclerotic activity in high-fat diet fed ApoE knockout C57BL/6 mouse assessed as reduction in atherosclerotic plaque size in aortic root at 30 mg/kg, IG for 8 weeks by Oil Red O staining based imaging analysis; assay type: functional, organism-based
Mus musculus [20] = assay: Antiatherosclerotic activity in high-fat diet fed ApoE knockout C57BL/6 mouse assessed as reduction in atherosclerotic plaque size in aortae en face root at 30 mg/kg, IG for 8 weeks by Oil Red O staining based imaging analysis; assay type: functional, organism-based
[21] = biological target: Proprotein convertase subtilisin/kexin type 9 (Homo sapiens) (UniProt Q8NBP7); assay: Inhibition of PCSK9 transcriptional activity in human HepG2 cells transfected with luciferase reporter plasmid containing truncated D1 (-1711 to -1 base pairs) human PCSK9 promoter region assessed as decrease in luciferase activity incubated for 24 hrs by Luciferase assay; assay type: cell-based
[22] = biological target: Proprotein convertase subtilisin/kexin type 9 (Homo sapiens) (UniProt Q8NBP7); assay: Inhibition of PCSK9 transcriptional activity in human HepG2 cells transfected with luciferase reporter plasmid containing truncated D2 (-1214 to -1 base pairs) human PCSK9 promoter region assessed as decrease in luciferase activity incubated for 24 hrs by Luciferase assay; assay type: cell-based
[23] = biological target: Proprotein convertase subtilisin/kexin type 9 (Homo sapiens) (UniProt Q8NBP7); assay: Inhibition of PCSK9 transcriptional activity in human HepG2 cells transfected with luciferase reporter plasmid containing truncated D3 (-709 to -1 base pairs) human PCSK9 promoter region assessed as decrease in luciferase activity incubated for 24 hrs by Luciferase assay; assay type: cell-based
[24] = biological target: Proprotein convertase subtilisin/kexin type 9 (Homo sapiens) (UniProt Q8NBP7); assay: Inhibition of PCSK9 transcriptional activity in human HepG2 cells transfected with luciferase reporter plasmid containing truncated D4 (-440 to -1 base pairs) human PCSK9 promoter region assessed as decrease in luciferase activity incubated for 24 hrs by Luciferase assay; assay type: cell-based
[25] = biological target: Proprotein convertase subtilisin/kexin type 9 (Homo sapiens) (UniProt Q8NBP7); assay: Inhibition of PCSK9 transcriptional activity in human HepG2 cells transfected with luciferase reporter plasmid containing truncated D5 (-392 to -1 base pairs) human PCSK9 promoter region assessed as decrease in luciferase activity incubated for 24 hrs by Luciferase assay; assay type: cell-based
[26] = biological target: Proprotein convertase subtilisin/kexin type 9 (Homo sapiens) (UniProt Q8NBP7); assay: Inhibition of PCSK9 transcriptional activity in human HepG2 cells transfected with luciferase reporter plasmid containing truncated D6 (-351 to -1 base pairs) human PCSK9 promoter region assessed as decrease in luciferase activity incubated for 24 hrs by Luciferase assay; assay type: cell-based
[27] = biological target: Proprotein convertase subtilisin/kexin type 9 (Homo sapiens) (UniProt Q8NBP7); assay: Inhibition of PCSK9 transcriptional activity in human HepG2 cells transfected with luciferase reporter plasmid containing truncated D7 (-335 to -1 base pairs) human PCSK9 promoter region assessed as decrease in luciferase activity incubated for 24 hrs by Luciferase assay; assay type: cell-based

- inhibition [1]: 23.3%
Compound: Cn1c(=O)c2c(nc(NCCO)n2Cc2ccc([N+](=O)[O-])cc2)n(C)c1=O

- inhibition [1]: 68.9%
Compound: COc1cccc(Cn2c(NC[C@H](C)O)nc3c2c(=O)n(C)c(=O)n3C)c1

Compound: COc1cccc(Cn2c(NCCO)nc3c2c(=O)n(C)c(=O)n3C)c1
- inhibition [1]: 89.8%
- CC50 at 24 h [2]: 45.5 µM
- selectivity ratio [3]: 16.8
- LD50 at 168 h [4]: 300 mg/kg
- Activity (Mus musculus [5]): Active
- Activity (Mus musculus [6]): inactive
- Activity (Mus musculus [7]): inactive

- inhibition [1]: 88.1%
Compound: Cc1ccccc1Cn1c(NCCO)nc2c1c(=O)n(C)c(=O)n2C

- inhibition [1]: 13.6%
Compound: Cn1c(=O)c2c(nc(NCCO)n2CC2CCOCC2)n(C)c1=O

- inhibition [1]: 41.4%
Compound: COC(=O)CCNc1nc2c(c(=O)n(C)c(=O)n2C)n1Cc1cccc(OC)c1

- inhibition [1]: 40.8%
Compound: Cn1c(=O)c2c(nc(NCCO)n2CC(=O)c2ccccc2)n(C)c1=O

- inhibition [1]: 11.6%
Compound: COc1cccc(Cn2c(NCC(O)CO)nc3c2c(=O)n(C)c(=O)n3C)c1 (configuration not stated)

- inhibition [1]: 0.8%
Compound: COc1cccc(Cn2c(N3CCCCC3CN3CCCC3)nc3c2c(=O)n(C)c(=O)n3C)c1 (configuration not stated)

- inhibition [1]: 2.3%
Compound: COc1cccc(Cn2c(NCCCN(C)C)nc3c2c(=O)n(C)c(=O)n3C)c1

- inhibition [1]: 19.6%
Compound: COc1cccc(Cn2c(NCCN(C)C)nc3c2c(=O)n(C)c(=O)n3C)c1

- inhibition [1]: 8.3%
Compound: COc1cccc(Cn2c(N3CCC(N4CCCC4)CC3)nc3c2c(=O)n(C)c(=O)n3C)c1

- inhibition [1]: 84.7%
Compound: Cn1c(=O)c2c(nc(NCCO)n2Cc2cccc(OC(F)(F)F)c2)n(C)c1=O

- inhibition [1]: 17%
Compound: COc1cccc(Cn2c(N3CCSCC3)nc3c2c(=O)n(C)c(=O)n3C)c1

- inhibition [1]: 92.6%
Compound: Cn1c(=O)c2c(nc(NCCO)n2Cc2cccc(F)c2)n(C)c1=O

- inhibition [1]: 68.4%
Compound: COC(=O)CNc1nc2c(c(=O)n(C)c(=O)n2C)n1Cc1cccc(OC)c1

- inhibition [1]: 20.2%
Compound: Cn1c(=O)c2c(nc(NCCO)n2Cc2ccccc2[N+](=O)[O-])n(C)c1=O

- inhibition [1]: 34.2%
Compound: Cn1c(=O)c2c(nc(NCCO)n2Cc2cccc(Br)c2)n(C)c1=O

- inhibition [1]: 81.7%
Compound: COc1cccc(Cn2c(NC[C@@H](C)O)nc3c2c(=O)n(C)c(=O)n3C)c1
- CC50 at 24 h [2]: 89.2 µM
- selectivity ratio [3]: 22.9

- inhibition [1]: 47%
Compound: Cn1c(=O)c2c(nc(NCCO)n2Cc2ccc(Cl)cc2)n(C)c1=O

- inhibition [1]: 9%
Compound: COc1cccc(Cn2c(NCCCCCCO)nc3c2c(=O)n(C)c(=O)n3C)c1

Compound: COCCNc1nc2c(c(=O)n(C)c(=O)n2C)n1Cc1cccc(OC)c1
- inhibition [1]: 85.7%
- CC50 at 24 h [2]: > 200 µM
- selectivity ratio [3]: > 31.3
- Activity [8]: Non-Toxic
- Activity [9]: Non-Toxic
- Activity [10]: Non-Toxic
- LD50 at 168 h [4]: > 1000 mg/kg
- inhibition (Mus musculus [11]): Active
- inhibition (Mus musculus [12]): Active
- inhibition [13]: Dose-Dependent Effect
- inhibition [14]: Dose-Dependent Effect
- inhibition [15]: Dose-Dependent Effect
- fold change (FC) [16]: 1.7
- Activity (Mus musculus [5]): Active
- Activity (Mus musculus [6]): Active
- Activity (Mus musculus [7]): Active
- Activity (Mus musculus [17]): Active
- Activity (Mus musculus [18]): Active
- Activity (Mus musculus [19]): Active
- Activity (Mus musculus [20]): Active
- inhibition [21]: Active
- inhibition [22]: Active
- inhibition [23]: Active
- inhibition [24]: Active
- inhibition [25]: Active
- inhibition [26]: inactive
- inhibition [27]: inactive

- inhibition [1]: 91%
Compound: Cn1c(=O)c2c(nc(NCCO)n2Cc2c(F)cccc2F)n(C)c1=O
